Measurements reported in article PMC5303819, “Cryptic bioactivity capacitated by synthetic hybrid plant peptides” (Nature Communications, 2017).

Assays:
[1] = tested on: Arabidopsis thaliana root; test: Root-shortening assay (root length); assay type: in vivo; details: for root-shortening activity: 1 μM peptide, 14-day-old root length, Fig. 1b, n=13-20; for CLV3-type activity: root 1 µM (stele 10 µM), Supplementary Fig. 8
Method: (§1) For root-length measurement, plants were germinated and grown vertically on half-strength Murashige and Skoog (MS) medium supplemented with 1% sucrose and peptide/control solution at 22 °C under continuous light. To observe the RAM, 4-day-old roots were excised and mounted in clearing solution (chloral hydrate/glycerol/water=8:1:2) before imaging with light microscope (Axio Imager.A2, Zeiss).

[2] = tested on: root apical meristem (RAM); test: Root apical meristem (RAM) morphology; assay type: in vivo, Arabidopsis thaliana; details: 1 μM peptide, 4-day-old, wild type, Fig. 1c
Method: as §1

hypocotyl stele = test: Stele-thickening assay (hypocotyl stele width); assay type: in vivo, Arabidopsis thaliana; details: for effect on stele radial growth / stele width: 10 μM peptide, liquid medium, 10-day-old hypocotyl, Fig. 1e,f
Method: (§2) For the observation of stele and leaf vein, seeds were germinated and cultured with shaking at 110 r.p.m. at 22 °C under continuous light in liquid half-strength MS medium supplemented with 1% sucrose and peptide/control solution. 10-day-old seedlings were fixed in a 1:3 mixture of acetic acid/ethanol, washed with water and mounted in clearing solution (chloral hydrate/glycerol/water=8:1:2) before imaging with a light microscope (Axio Imager.A2, Zeiss).

[3] = tested on: Arabidopsis thaliana root; details: cited from earlier work
Description: CLV3-like activities have also been reported in other 18 CLE peptides. […] We analysed the structure–activity relationship between CLV3 (Fig. 1a, peptide 1) and CLE25 (Fig. 1a, peptide 2) by swapping the residues at 2nd, 5th, 10th and 12th positions (Fig. 1a, peptide 3–16). […] Although all the chimera peptides shortened the root, only the peptide 15, hereafter call ...

[4] = biological target: T1, CLV1 ectodomain (CLV1-HT) (Arabidopsis thaliana, UniProt Q9SYQ8); test: Photo-affinity labelling with [125I]ASA-KIN, CLV1; assay type: binding
T1 construct: applied it to the membrane fractions containing receptor ectodomains expressed in tobacco cells; made in house; host or cells: tobacco BY-2 cells (microsomal fraction)
T1 sequence (Q9SYQ8 25-638 limits assumed): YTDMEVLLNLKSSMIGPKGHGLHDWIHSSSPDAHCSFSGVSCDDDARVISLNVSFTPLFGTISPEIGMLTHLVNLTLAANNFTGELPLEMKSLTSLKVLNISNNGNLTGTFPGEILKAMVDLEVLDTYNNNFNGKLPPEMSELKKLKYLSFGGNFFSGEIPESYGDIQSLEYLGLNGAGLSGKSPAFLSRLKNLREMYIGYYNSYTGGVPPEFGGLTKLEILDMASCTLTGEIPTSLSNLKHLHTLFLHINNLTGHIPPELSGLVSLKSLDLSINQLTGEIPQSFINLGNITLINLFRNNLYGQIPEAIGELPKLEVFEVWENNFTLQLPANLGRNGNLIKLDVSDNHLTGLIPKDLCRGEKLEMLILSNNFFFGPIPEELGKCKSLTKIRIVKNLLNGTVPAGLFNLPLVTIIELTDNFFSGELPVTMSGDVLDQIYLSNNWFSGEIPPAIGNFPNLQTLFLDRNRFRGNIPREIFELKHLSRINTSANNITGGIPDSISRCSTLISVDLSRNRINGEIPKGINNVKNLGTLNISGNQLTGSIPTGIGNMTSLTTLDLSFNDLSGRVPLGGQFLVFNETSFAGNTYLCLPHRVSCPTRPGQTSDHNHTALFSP
Method: (§3) Aliquots (1,000 μg) of microsomal proteins for Halo-tagged receptors (CLV1-HT[10], TDR-HT[7] and CLV2-HT[20]) from tobacco BY-2 cells were suspended in 250 μl binding buffer (50 mM MES-KOH pH 5.5 with 100 mM sucrose) containing 30 nM [^125I]ASA-KIN in the presence or absence of various concentrations of competitor peptides indicated in corresponding figure legends and then incubated for 10 min on ice. The bound and free [^125I]ASA-KIN were separated by layering the reaction mixture onto 900 μl of wash buffer (50 mM MES-KOH pH 5.5 with 500 mM sucrose) and centrifuging for 5 min at 100,000 g at 4 °C. After discarding the supernatant, the pellet was irradiated on ice for 20 min with an ultraviolet lamp (model ENF-260C/J (365 nm), Spectronics Co. Ltd) at a distance of 1 cm. The cross-linked membrane proteins were solubilized, immunoprecipitated by using HaloTag antibody and separated by SDS–PAGE on a 7.5% acrylamide gel. The dried gels were exposed to the bio-imaging plate (MS 2,025, Fujifilm) for 2 days at room temperature and the plates were analysed using a bio-imaging analyser (Typhoon FLA 900, GE).

[5] = tested on: shoot apical meristem (SAM); test: Shoot apical meristem (SAM) morphology in sections; assay type: in vivo, Arabidopsis thaliana; details: 10 μM peptide, 10-day treatment
Method: To observe the SAM, plants were germinated and grown at 22 °C under continuous light on half-strength MS medium supplemented with 1% sucrose and 10 μM peptide/control solution. To make sections, roots and leaves were cut off from 10-day-old seedlings, then fixed in FAA solution (50% ethanol:10% formalin:5% acetic acid in water) and embedded into Technovit 7,100 resin according to the manufacturer's instructions (Heraeus Kulzer). Four-micrometre-thin sections were made using a microtome (RM2235, Leica), stained with 0.05% toluidine blue and mounted in Entellan New (Merck) before observation with a light microscope (Axio Imager.A2, Zeiss).

leaf vein xylem strands = test: Leaf vein xylem strand observation; assay type: in vivo, Arabidopsis thaliana; details: 10 μM peptide, 10-day-old clv2-101, Fig. 2c
Method: as §2

TDR ectodomain (TDR-HT) = biological target: T2, TDR ectodomain (TDR-HT) (Arabidopsis thaliana, UniProt Q9FII5); test: Photo-affinity labelling with [125I]ASA-KIN, TDR; assay type: binding
T2 construct: applied it to the membrane fractions containing receptor ectodomains expressed in tobacco cells; made in house; host or cells: tobacco BY-2 cells (microsomal fraction)
T2 sequence (Q9FII5 30-652 limits assumed): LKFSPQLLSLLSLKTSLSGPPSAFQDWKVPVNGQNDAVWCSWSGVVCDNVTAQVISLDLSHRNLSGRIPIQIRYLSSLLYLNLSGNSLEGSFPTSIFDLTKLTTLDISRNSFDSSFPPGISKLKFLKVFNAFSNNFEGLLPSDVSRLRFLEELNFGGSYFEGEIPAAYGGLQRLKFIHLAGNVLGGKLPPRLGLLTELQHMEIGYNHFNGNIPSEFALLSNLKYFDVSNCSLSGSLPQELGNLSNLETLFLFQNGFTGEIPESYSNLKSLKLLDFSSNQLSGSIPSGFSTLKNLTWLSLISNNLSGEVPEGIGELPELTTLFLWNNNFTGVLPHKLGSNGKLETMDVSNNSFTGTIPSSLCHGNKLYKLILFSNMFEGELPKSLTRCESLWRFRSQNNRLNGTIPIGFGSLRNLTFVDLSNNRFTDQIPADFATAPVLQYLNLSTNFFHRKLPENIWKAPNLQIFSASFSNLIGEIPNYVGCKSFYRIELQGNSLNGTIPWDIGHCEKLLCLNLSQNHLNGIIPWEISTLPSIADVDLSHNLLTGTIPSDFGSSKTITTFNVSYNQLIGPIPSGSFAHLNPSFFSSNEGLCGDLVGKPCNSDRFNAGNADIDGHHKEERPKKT
Method: as §3

[6] = biological target: T3, CLV2 ectodomain (CLV2-HT) (Arabidopsis thaliana, UniProt O80809); test: Photo-affinity labelling with [125I]ASA-KIN, CLV2; assay type: binding; details: 30 nM [125I]ASA-KIN probe, same condition, Supplementary Fig. 6
T3 construct: made in house; host or cells: tobacco BY-2 cells (microsomal fraction)
T3 sequence (O80809 26-686 limits assumed): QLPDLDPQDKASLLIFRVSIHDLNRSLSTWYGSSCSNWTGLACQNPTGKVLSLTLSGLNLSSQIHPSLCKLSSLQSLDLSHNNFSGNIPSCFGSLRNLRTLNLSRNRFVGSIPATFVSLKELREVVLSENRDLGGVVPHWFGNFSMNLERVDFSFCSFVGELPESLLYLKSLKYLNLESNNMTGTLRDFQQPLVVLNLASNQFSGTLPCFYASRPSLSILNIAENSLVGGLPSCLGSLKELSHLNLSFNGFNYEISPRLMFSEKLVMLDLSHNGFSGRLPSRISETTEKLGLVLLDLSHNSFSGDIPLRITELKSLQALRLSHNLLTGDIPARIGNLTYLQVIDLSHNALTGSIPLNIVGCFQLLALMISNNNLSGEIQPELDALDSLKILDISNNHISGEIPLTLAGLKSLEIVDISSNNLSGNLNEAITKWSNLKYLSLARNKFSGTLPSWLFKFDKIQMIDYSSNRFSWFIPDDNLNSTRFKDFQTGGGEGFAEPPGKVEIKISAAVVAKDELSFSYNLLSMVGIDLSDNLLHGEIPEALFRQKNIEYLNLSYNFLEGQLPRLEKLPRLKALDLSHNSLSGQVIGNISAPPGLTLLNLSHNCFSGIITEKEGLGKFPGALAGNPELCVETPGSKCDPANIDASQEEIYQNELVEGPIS
Method: as §3

[7] = wild type, Supplementary Fig. 1
[8] = 30 nM probe, MES-KOH pH 5.5, 10 min on ice, tobacco BY-2 microsomes, Fig. 3c
[9] = various concentrations of KIN, Supplementary Fig. 7

In the case of “CLE25: endogenously encoded CLE peptide sequence, CLV3-type, synthesized without hydroxyprolines (RKVPNGPDPIHN; CLE25p no hydroxyprolines; UniProt Q8LFL4 58-69, looked up)”, the root-shortening activity ([1]; wild type) is reported as “showed root-shortening activities”, the “concentration at which bioactivity starts in root shortening assay” value [1, 7] is reported as ~ 100 nM and the “size of the root apical meristem (RAM)” value [2] is reported as “reduced”. The “effect on stele radial growth / stele width” value (hypocotyl stele; wild type, 2b) was “reduce the thickening of vascular tissues in the hypocotyl” and the “effectiveness in the root-shortening assay” value [3] was “more effective than CLV3”.
For “CLV3-S^11th: CLV3 with H-to-S substitution at the 11th position (RTVPSGPDPLSHH; MCLV3; UniProt Q9XF04 70-82, looked up, variant H11S)”, the CLV3-type activity [1] was “neither CLV3 nor CLE41 activity”, the CLV3-type activity ([1]; listed as peptide 24) was “even weaker than KIN-1δ” and the CLE41-type activity (hypocotyl stele; stele 10 µM, Supplementary Fig. 8) was “neither CLV3 nor CLE41 activity”. The “interaction with CLV1 in competitive displacement assay with [125I]ASA-KIN” value ([4]; Supplementary Fig. 10) was “retained the interaction with CLV1”.
For “CLV3: endogenously encoded 12 amino-acid CLE peptide, chemically synthesized without hydroxyprolines”, the root-shortening activity ([1]; wild type) was “showed root-shortening activities”, the “response of clv2-101 mutant, root length and RAM size” value ([1]; clv2-101 mutant, Supplementary Fig. 3a,b) was “resistant” and the “dose-response of root growth attenuation” value ([1]; wild type, 1 nM-1 µM, Supplementary Fig. 1) was “attenuates the root growth in a lower concentration than CLE25 and KIN”. The “concentration at which bioactivity starts in root shortening assay” value [1, 7] was ~ 10 nM, the “size of the root apical meristem (RAM)” value [2] was “reduced” and the “SAM of clv1-101 and clv2-101 mutants after treatment” value ([5]; loss-of-function mutants, Fig. 2a) was “maintained”. For the same substance, the “effect on SAM” value ([5]; wild type, Fig. 1d) was “disappeared”, the “response of clv2-101 mutant to inhibitory activity on stele width” value (hypocotyl stele; 100 nM peptide, clv2-101 mutant, Fig. 2b) was “insensitive” and the “effect on stele width at 100 nM” value (hypocotyl stele; 100 nM peptide, wild type, 10-day-old, Fig. 1g, 2b) was “reduced the stele width”. The “effect on stele radial growth / stele width” value (hypocotyl stele; wild type, 2b) was “reduced radial growth of the stele”, the “lowest concentration with negative effect on stele growth” value (hypocotyl stele; wild type, 10-day-old, dose-response Fig. 1g) was 30 nM and the “effect on xylem differentiation in leaf vein” value (leaf vein xylem strands) was “not observed”. For the same substance, the “competition of [125I]ASA-KIN labelling of CLV1” value ([4]; 1,000-fold excess non-radio-labelled peptide, Fig. 3c) was “competitively inhibited”.
In the case of [(4-azidosalicyl)Lys^2]KIN [ASA-KIN], the “bioactivity compared with KIN, root shortening” value ([1]; 10 nM-1 µM, Supplementary Fig. 5b) is reported as “reduced compared with the original KIN” and the “bioactivity compared with KIN, hypocotyl stele thickening” value (hypocotyl stele; Supplementary Fig. 5c) is reported as “reduced compared with the original KIN”.
For “[^125I]-radiolabelled [(4-azidosalicyl)Lys^2]KIN [[^125I]ASA-KIN]”, the “photo-affinity labelling of CLV1 ectodomain” value [4, 8] was “covalently labelled”, the “competitive displacement of probe binding to CLV1 by KIN” value [4, 9] was “binds to these receptors in a similar manner” and the “photo-affinity labelling of TDR ectodomain” value (TDR ectodomain (TDR-HT); [8]) was “covalently labelled”. The “competitive displacement of probe binding to TDR by KIN” value (TDR ectodomain (TDR-HT); [9]) was “binds to these receptors in a similar manner” and the “interaction with CLV2 ectodomain” value [6] was “no interaction was detected”.
